Tests used:
Type in all cases: functional
SNB-19 = assay: Cytotoxicity against human SNB19 cells after 48 hrs by trypan blue dye exclusion assay; settings: SNB-19, 48 h
HL-60(TB) = assay: Cytotoxicity against human HL-60(TB) cells after 48 hrs by trypan blue dye exclusion assay; settings: HL-60, 48 h
COLO 205 = assay: Cytotoxicity against human COLO205 cells after 48 hrs by trypan blue dye exclusion assay; settings: COLO 205, 48 h
NCI-H226 = assay: Cytotoxicity against human NCI-H226 cells after 48 hrs by trypan blue dye exclusion assay; settings: NCI-H226, 48 h
SK-OV-3 = assay: Cytotoxicity against human SKOV3 cells after 48 hrs by trypan blue dye exclusion assay; settings: SK-OV-3, 48 h
NCI-H322M = assay: Cytotoxicity against human NCI-H322M cells after 48 hrs by trypan blue dye exclusion assay
CAKI-1 = assay: Cytotoxicity against human CAKI-1 cells after 48 hrs by trypan blue dye exclusion assay; settings: CAKI-1, 48 h
KM12 = assay: Cytotoxicity against human KM12 cells after 48 hrs by trypan blue dye exclusion assay; settings: KM12, 48 h
RXF 393 = assay: Cytotoxicity against human RXF393 cells after 48 hrs by trypan blue dye exclusion assay; settings: RXF 393, 48 h
RPMI-8226 = assay: Cytotoxicity against human RPMI8226 cells after 48 hrs by trypan blue dye exclusion assay; settings: RPMI-8226, 48 h
786-0 = assay: Cytotoxicity against human 786-0 cells after 48 hrs by trypan blue dye exclusion assay; settings: 786-0, 48 h
SK-MEL-2 = assay: Cytotoxicity against human SK-MEL-2 cells after 48 hrs by trypan blue dye exclusion assay; settings: SK-MEL-2, 48 h
BT-549 = assay: Cytotoxicity against human BT549 cells after 48 hrs by trypan blue dye exclusion assay; settings: BT-549, 48 h
A498 = assay: Cytotoxicity against human A498 cells after 48 hrs by trypan blue dye exclusion assay; settings: A498, 48 h
IGROV-1 = assay: Cytotoxicity against human IGROV1 cells after 48 hrs by trypan blue dye exclusion assay; settings: IGROV-1, 48 h

Structure (SMILES): COc1ccc2c(c1)OC1=C(C(=O)OC1)C2c1cc(OC)c2c(c1)OCO2 (stereo unspecified)
- GI50 (SNB-19): 47.9 nM
- GI50 (HL-60(TB)): 30.3 nM
- GI50 (COLO 205): 27.8 nM
- TGI (COLO 205): 69.2 nM
- GI50 (NCI-H226): 33.4 nM
- GI50 (SK-OV-3): 29.3 nM
- GI50 (NCI-H322M): 71.3 nM
- GI50 (CAKI-1): 58 nM
- GI50 (KM12): 29.6 nM
- GI50 (RXF 393): 17.8 nM
- GI50 (RPMI-8226): 48.5 nM
- GI50 (786-0): 51.4 nM
- GI50 (SK-MEL-2): 34.3 nM
- GI50 (BT-549): 107 nM
- GI50 (A498): 27.2 nM
- GI50 (IGROV-1): 62.4 nM
